In ChEMBL document CHEMBL1149764, “Synthesis, structure and biological activity of pseudopeptidic macrolides based on an amino alcohol” (Eur J Med Chem, 2008):
Converted amounts (≈) assume the structure as drawn.

Columns and labels:
[1] = Toxicity against human erythrocytes assessed as hemolytic activity at 2000 ug/ml; type: cell-based, Erythrocyte; details: read-out: Activity
[2] = Toxicity against human erythrocytes assessed as hemolytic activity at 4000 ug/ml; type: cell-based, Erythrocyte; details: read-out: Activity
[3] = Toxicity against human erythrocytes assessed as hemolytic activity at 1000 ug/ml; type: cell-based, Erythrocyte; details: read-out: Activity
[4] = tested on: Saccharomyces cerevisiae; experiment: Antifungal activity against Saccharomyces cerevisiae SYM 3513 after 48 hrs standard broth microdilution method; type: functional
[5] = Antifungal activity against […] nigricans SYM 2417 after 48 hrs standard broth microdilution method; type: functional
[6] = tested on: Aspergillus flavus; experiment: Antifungal activity against Aspergillus flavus SYM 223 after 48 hrs standard broth microdilution method; type: functional
[7] = Toxicity against human erythrocytes assessed as hemolytic activity at 250 ug/ml; type: cell-based, Erythrocyte; details: read-out: Activity
[8] = tested on: Candida albicans; experiment: Antifungal activity against Candida albicans ATCC 10231 after 48 hrs standard broth microdilution method; type: functional; details: ATCC 10231, 48 h
[9] = tested on: Staphylococcus aureus; experiment: Antibacterial activity against Staphylococcus aureus ATCC 25923 after 24 hrs by twofold dilution method; type: functional; details: ATCC 25923, 24 h
[10] = tested on: Bacillus subtilis; experiment: Antibacterial activity against Bacillus subtilis ATCC 6633 after 24 hrs by twofold dilution method; type: functional; details: ATCC 6633, 24 h
[11] = tested on: Aspergillus niger; experiment: Antifungal activity against Aspergillus niger ATCC 16404 after 48 hrs standard broth microdilution method; type: functional; details: ATCC 16404, 48 h
[12] = tested on: Cryptococcus neoformans; experiment: Antifungal activity against Cryptococcus neoformans SYM 523 after 48 hrs standard broth microdilution method; type: functional
[13] = tested on: Pseudomonas aeruginosa; experiment: Antibacterial activity against Pseudomonas aeruginosa ATCC 27853 after 24 hrs by twofold dilution method; type: functional; details: ATCC 27853, 24 h
[14] = Antifungal activity against […] glutinis SYM 2209 after 48 hrs standard broth microdilution method; type: functional
[15] = tested on: Escherichia coli; experiment: Antibacterial activity against Escherichia coli ATCC 25922 after 24 hrs by twofold dilution method; type: functional; details: ATCC 25922, 24 h
[16] = Toxicity against human erythrocytes assessed as hemolytic activity at 500 ug/ml; type: cell-based, Erythrocyte; details: read-out: Activity

Structure (SMILES)	hemolysis at 2000 ug/ml [1]	hemolysis at 4000 ug/ml [2]	hemolysis at 1000 ug/ml [3]	MIC [4]	MIC [5]	MIC [6]	hemolysis at 250 ug/ml [7]	MIC [8]	MIC [9]	MIC [10]	MIC [11]	MIC [12]	MIC [13]	MIC [14]	MIC [15]	hemolysis at 500 ug/ml [16]
O=C1O[C@H]2Cc3ccccc3[C@H]2NC(=O)c2cccc(n2)C(=O)N[C@@H]2c3ccccc3C[C@@H]2OC(=O)c2cccc1c2	6%	9%	3%	16 µg/mL (≈ 28.6 µM)	4 µg/mL (≈ 7.15 µM)	8 µg/mL (≈ 14.3 µM)	0%	4 µg/mL (≈ 7.15 µM)	32 µg/mL (≈ 57.2 µM)	4 µg/mL (≈ 7.15 µM)	4 µg/mL (≈ 7.15 µM)	8 µg/mL (≈ 14.3 µM)	32 µg/mL (≈ 57.2 µM)	8 µg/mL (≈ 14.3 µM)	> 64 µg/mL	0%
O=C1O[C@H]2Cc3ccccc3[C@H]2NC(=O)c2cccc(c2)C(=O)N[C@@H]2c3ccccc3C[C@@H]2OC(=O)C2=CC=C1S2	4%	9%	1%	16 µg/mL (≈ 28.3 µM)	1 µg/mL (≈ 1.77 µM)	8 µg/mL (≈ 14.2 µM)	0%	1 µg/mL (≈ 1.77 µM)	16 µg/mL (≈ 28.3 µM)	> 64 µg/mL	32 µg/mL (≈ 56.7 µM)	4 µg/mL (≈ 7.08 µM)	> 64 µg/mL	4 µg/mL (≈ 7.08 µM)	16 µg/mL (≈ 28.3 µM)	0%
OC(Cn1cncn1)(Cn1cncn1)c1ccc(F)cc1F [FLUCONAZOLE]				32 µg/mL (≈ 104 µM)		64 µg/mL (≈ 209 µM)		16 µg/mL (≈ 52.2 µM)			64 µg/mL (≈ 209 µM)	32 µg/mL (≈ 104 µM)		> 64 µg/mL		
O=C1N[C@@H]2c3ccccc3C[C@@H]2OC(=O)c2cccc(n2)C(=O)O[C@H]2Cc3ccccc3[C@H]2NC(=O)c2cccc1c2	4%	7%	2%	32 µg/mL (≈ 57.2 µM)	4 µg/mL (≈ 7.15 µM)	2 µg/mL (≈ 3.57 µM)	0%	4 µg/mL (≈ 7.15 µM)	16 µg/mL (≈ 28.6 µM)	> 64 µg/mL	8 µg/mL (≈ 14.3 µM)	16 µg/mL (≈ 28.6 µM)	> 64 µg/mL	8 µg/mL (≈ 14.3 µM)	32 µg/mL (≈ 57.2 µM)	0%
O=C1N[C@@H]2c3ccccc3C[C@@H]2OC(=O)c2cccc(n2)C(=O)O[C@H]2Cc3ccccc3[C@H]2NC(=O)c2cccc1n2	1%	2%	0%	64 µg/mL (≈ 114 µM)	8 µg/mL (≈ 14.3 µM)	> 64 µg/mL	0%	1 µg/mL (≈ 1.78 µM)	4 µg/mL (≈ 7.14 µM)	8 µg/mL (≈ 14.3 µM)	4 µg/mL (≈ 7.14 µM)	16 µg/mL (≈ 28.5 µM)	> 64 µg/mL	16 µg/mL (≈ 28.5 µM)	32 µg/mL (≈ 57.1 µM)	0%
O=C(N[C@H](CO)[C@H](O)c1ccc([N+](=O)[O-])cc1)C(Cl)Cl [CHLORAMPHENICOL]									4 µg/mL (≈ 12.4 µM)	8 µg/mL (≈ 24.8 µM)			32 µg/mL (≈ 99 µM)		8 µg/mL (≈ 24.8 µM)	
C[C@@H]1[C@H](O)[C@@H](C)/C=C/C=C/C=C/C=C/C=C/C=C/C=C/[C@H](O[C@@H]2O[C@H](C)[C@@H](O)[C@H](N)[C@@H]2O)C[C@@H]2O[C@](O)(C[C@@H](O)C[C@@H](O)[C@H](O)CC[C@@H](O)C[C@@H](O)CC(=O)O[C@H]1C)C[C@H](O)[C@H]2C(=O)O [AMPHOTERICIN B]				0.5 µg/mL (≈ 0.541 µM)		0.5 µg/mL (≈ 0.541 µM)		1 µg/mL (≈ 1.08 µM)			1 µg/mL (≈ 1.08 µM)			2 µg/mL (≈ 2.16 µM)		
O=C1O[C@H]2Cc3ccccc3[C@H]2NC(=O)c2cccc(n2)C(=O)N[C@@H]2c3ccccc3C[C@@H]2OC(=O)C2=CC=C1S2	6%	14%	4%	8 µg/mL (≈ 14.1 µM)	1 µg/mL (≈ 1.77 µM)	1 µg/mL (≈ 1.77 µM)	0.5%	1 µg/mL (≈ 1.77 µM)	8 µg/mL (≈ 14.1 µM)	> 64 µg/mL	4 µg/mL (≈ 7.07 µM)	4 µg/mL (≈ 7.07 µM)	> 64 µg/mL	4 µg/mL (≈ 7.07 µM)	> 64 µg/mL	1%
O=C1N[C@@H]2c3ccccc3C[C@@H]2OC(=O)c2cccc(c2)C(=O)O[C@H]2Cc3ccccc3[C@H]2NC(=O)c2cccc1c2	0.5%	2%	0%	32 µg/mL (≈ 57.3 µM)	1 µg/mL (≈ 1.79 µM)	2 µg/mL (≈ 3.58 µM)	0%	1 µg/mL (≈ 1.79 µM)	4 µg/mL (≈ 7.16 µM)	8 µg/mL (≈ 14.3 µM)	8 µg/mL (≈ 14.3 µM)	4 µg/mL (≈ 7.16 µM)	> 64 µg/mL	4 µg/mL (≈ 7.16 µM)	16 µg/mL (≈ 28.6 µM)	0%
